According to publication PMC4783567, “The Effect of Vinpocetine on Human Cytochrome P450 Isoenzymes by Using a Cocktail Method” (Evidence-based Complementary and Alternative Medicine : eCAM, 2016):

Key:
Assay in all cases: five-probe cocktail in human liver microsomes, LC-MS/MS of metabolites
Assay type in all cases: biochemical
[1] = target: T1, CYP2C19 (Homo sapiens, UniProt P33261); conditions: omeprazole 5-hydroxylation, printed 50 mM omeprazole (unit as printed), 1 mM NADPH, pH 7.4, 37°C; unreliable (extrapolated above top concentration 100 μM; text says > 100 μM)
T1 construct: native enzyme in pooled human liver microsomes (BD Gentest); activity read by omeprazole 5-hydroxylation
Description: five-probe cocktail in human liver microsomes, LC-MS/MS of metabolites on CYP2C19

[2] = target: T2, CYP3A4 (Homo sapiens, UniProt P08684); conditions: testosterone 6β-hydroxylation, printed 50 mM testosterone (unit as printed), otherwise as row above; unreliable (extrapolated above top concentration 100 μM; text says > 100 μM)
T2 construct: native enzyme in pooled human liver microsomes (BD Gentest); activity read by testosterone 6beta-hydroxylation (CYP3A5 may contribute)
Description: five-probe cocktail in human liver microsomes, LC-MS/MS of metabolites on CYP3A4

[3] = target: T3, CYP2C9 (Homo sapiens, UniProt P11712); conditions: tolbutamide 4-hydroxylation, printed 100 mM tolbutamide (unit as printed), 1 mM NADPH, 3.3 mM MgCl2, pH 7.4, 37°C, 30 min; b29 prints 68.91; Table 2 prints vinpocetine in μg/mL, methods in μM
T3 construct: native enzyme in pooled human liver microsomes (BD Gentest); activity read by tolbutamide 4-hydroxylation
Description: five-probe cocktail in human liver microsomes, LC-MS/MS of metabolites on CYP2C9

[4] = target: T4, CYP2D6 (Homo sapiens, UniProt P10635); conditions: dextrorphan formation, printed 5 mM dextromethorphan (unit as printed), 1 mM NADPH, pH 7.4, 37°C; unreliable (extrapolated above top concentration 100 μM; text says > 100 μM)
T4 construct: native enzyme in pooled human liver microsomes (BD Gentest); activity read by dextrorphan formation from dextromethorphan
Description: five-probe cocktail in human liver microsomes, LC-MS/MS of metabolites on CYP2D6

[5] = target: T5, CYP2E1 (Homo sapiens, UniProt P05181); conditions: chlorzoxazone 6-hydroxylation, printed 50 mM chlorzoxazone (unit as printed), 1 mM NADPH, pH 7.4, 37°C; unreliable (extrapolated above top concentration 100 μM; text says > 100 μM)
T5 construct: native enzyme in pooled human liver microsomes (BD Gentest); activity read by chlorzoxazone 6-hydroxylation
Description: five-probe cocktail in human liver microsomes, LC-MS/MS of metabolites on CYP2E1

T4 sequence (P10635 whole entry): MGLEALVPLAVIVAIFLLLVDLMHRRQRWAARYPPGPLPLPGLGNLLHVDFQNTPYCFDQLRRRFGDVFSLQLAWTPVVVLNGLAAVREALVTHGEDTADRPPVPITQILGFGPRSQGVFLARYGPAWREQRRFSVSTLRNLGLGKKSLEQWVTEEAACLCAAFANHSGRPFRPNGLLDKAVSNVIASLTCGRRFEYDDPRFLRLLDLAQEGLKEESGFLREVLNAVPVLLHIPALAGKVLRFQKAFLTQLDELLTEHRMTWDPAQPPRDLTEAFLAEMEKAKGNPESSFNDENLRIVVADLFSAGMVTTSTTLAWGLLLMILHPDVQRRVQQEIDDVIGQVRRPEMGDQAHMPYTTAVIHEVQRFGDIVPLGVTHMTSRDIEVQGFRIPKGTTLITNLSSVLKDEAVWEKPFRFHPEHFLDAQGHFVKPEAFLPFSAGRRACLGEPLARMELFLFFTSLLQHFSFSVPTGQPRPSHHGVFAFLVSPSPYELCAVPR
T5 sequence (P05181 whole entry): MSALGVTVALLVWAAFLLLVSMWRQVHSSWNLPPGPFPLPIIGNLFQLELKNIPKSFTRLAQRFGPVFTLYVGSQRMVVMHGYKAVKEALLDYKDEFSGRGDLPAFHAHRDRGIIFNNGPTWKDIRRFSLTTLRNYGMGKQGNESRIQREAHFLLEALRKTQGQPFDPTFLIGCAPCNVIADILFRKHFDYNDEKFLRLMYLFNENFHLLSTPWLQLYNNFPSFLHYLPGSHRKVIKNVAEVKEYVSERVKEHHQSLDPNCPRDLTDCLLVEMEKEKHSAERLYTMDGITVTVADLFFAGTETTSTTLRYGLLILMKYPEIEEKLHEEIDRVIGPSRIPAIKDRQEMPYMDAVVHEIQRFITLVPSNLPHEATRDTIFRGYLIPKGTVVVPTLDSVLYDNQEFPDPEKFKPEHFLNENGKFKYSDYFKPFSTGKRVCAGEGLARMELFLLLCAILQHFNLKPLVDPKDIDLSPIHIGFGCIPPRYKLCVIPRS
T1 sequence (P33261 whole entry): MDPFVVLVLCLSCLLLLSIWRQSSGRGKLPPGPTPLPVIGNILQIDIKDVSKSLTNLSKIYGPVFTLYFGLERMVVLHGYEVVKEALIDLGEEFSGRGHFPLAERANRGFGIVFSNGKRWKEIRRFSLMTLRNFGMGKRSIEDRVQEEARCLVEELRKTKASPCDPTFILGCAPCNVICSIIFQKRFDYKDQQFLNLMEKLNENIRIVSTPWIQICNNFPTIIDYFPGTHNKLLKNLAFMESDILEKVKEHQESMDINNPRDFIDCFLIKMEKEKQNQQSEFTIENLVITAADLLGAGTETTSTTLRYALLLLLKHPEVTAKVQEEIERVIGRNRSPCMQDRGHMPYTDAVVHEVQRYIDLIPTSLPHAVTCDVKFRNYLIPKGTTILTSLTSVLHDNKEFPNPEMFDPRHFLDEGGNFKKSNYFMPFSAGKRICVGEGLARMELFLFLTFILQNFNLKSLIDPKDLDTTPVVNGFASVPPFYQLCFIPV
T3 sequence (P11712 whole entry): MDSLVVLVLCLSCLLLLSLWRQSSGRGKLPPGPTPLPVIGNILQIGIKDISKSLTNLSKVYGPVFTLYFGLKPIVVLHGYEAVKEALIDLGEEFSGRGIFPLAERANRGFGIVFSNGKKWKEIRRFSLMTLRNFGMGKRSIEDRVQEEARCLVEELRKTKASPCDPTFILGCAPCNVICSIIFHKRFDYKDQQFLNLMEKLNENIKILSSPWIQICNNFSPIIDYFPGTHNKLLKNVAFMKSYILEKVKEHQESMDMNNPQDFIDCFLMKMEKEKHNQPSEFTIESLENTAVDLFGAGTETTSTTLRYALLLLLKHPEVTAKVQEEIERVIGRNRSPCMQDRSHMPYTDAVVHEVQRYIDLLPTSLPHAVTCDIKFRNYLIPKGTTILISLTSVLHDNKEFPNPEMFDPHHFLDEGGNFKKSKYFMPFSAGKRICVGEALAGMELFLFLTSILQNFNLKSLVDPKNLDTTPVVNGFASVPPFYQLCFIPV
T2 sequence (P08684 2-503): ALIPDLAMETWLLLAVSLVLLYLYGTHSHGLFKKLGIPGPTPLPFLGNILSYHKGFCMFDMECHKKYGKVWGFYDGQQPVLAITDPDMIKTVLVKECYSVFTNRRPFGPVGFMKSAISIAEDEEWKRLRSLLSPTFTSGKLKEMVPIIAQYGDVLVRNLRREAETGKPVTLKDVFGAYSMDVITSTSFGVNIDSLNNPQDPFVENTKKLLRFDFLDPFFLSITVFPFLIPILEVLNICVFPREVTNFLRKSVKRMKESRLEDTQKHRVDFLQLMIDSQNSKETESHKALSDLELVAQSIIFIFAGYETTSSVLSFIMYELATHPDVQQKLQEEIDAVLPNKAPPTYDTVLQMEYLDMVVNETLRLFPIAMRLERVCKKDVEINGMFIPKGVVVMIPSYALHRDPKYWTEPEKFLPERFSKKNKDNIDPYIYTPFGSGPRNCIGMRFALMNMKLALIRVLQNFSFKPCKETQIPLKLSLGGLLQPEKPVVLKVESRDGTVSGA

- IC50 [1]: 285.1 µM
- IC50 [2]: 107.1 µM
- IC50 (μM) [3]: 68.96 [95% CI: 49.14–96.79] μM
- IC50 [4]: 104.4 µM
- IC50 [5]: 2837 µM
SMILES: CCOC(=O)C1=C[C@]2(CC)CCCN3CCc4c(n1c1ccccc41)[C@@H]32 [Vinpocetine, ethyl (3α,16α)-eburnamenine-14-carboxylate]
